Experimental data published in ChEMBL document CHEMBL3046894, “Synthesis and Herbicidal Activity of Pyrimidinyl Salicylic and Thiosalicylic Acids” (J Pestic Sci, 1996).
Active and inactive are the calls of the source. The rule behind the calls is not given here.

Tests used:
Type in all cases: functional, organism-based
Chenopodium album [1] = assay: Pre-emergence herbicidal activity against Chenopodium album assessed as growth inhibition at 25 g a.i/10 a
Persicaria nodosa [2] = assay: Post-emergence herbicidal activity against Persicaria nodosa assessed as growth inhibition at 25 g a.i/10 a applied 11 days after germination as foliar spray
Digitaria sanguinalis [3] = assay: Pre-emergence herbicidal activity against Digitaria sanguinalis (hairy crabgrass) assessed as growth inhibition at 25 g a.i/10 a
Echinochloa crus-galli [4] = assay: Pre-emergence herbicidal activity against Echinochloa crus-galli (barnyard grass) assessed as growth inhibition at 25 g a.i/10 a
Amaranthus retroflexus [5] = assay: Pre-emergence herbicidal activity against Amaranthus retroflexus assessed as growth inhibition at 25 g a.i/10 a
Digitaria sanguinalis [6] = assay: Post-emergence herbicidal activity against Digitaria sanguinalis (hairy crabgrass) assessed as growth inhibition at 25 g a.i/10 a applied 11 days after germination as foliar spray
Cyperus iria [7] = assay: Pre-emergence herbicidal activity against Cyperus iria assessed as growth inhibition at 25 g a.i/10 a
Cyperus iria [8] = assay: Post-emergence herbicidal activity against Cyperus iria assessed as growth inhibition at 25 g a.i/10 a applied 11 days after germination as foliar spray
Amaranthus retroflexus [9] = assay: Post-emergence herbicidal activity against Amaranthus retroflexus assessed as growth inhibition at 25 g a.i/10 a applied 11 days after germination as foliar spray
Echinochloa crus-galli [10] = assay: Post-emergence herbicidal activity against Echinochloa crus-galli (barnyard grass) assessed as growth inhibition at 25 g a.i/10 a applied 11 days after germination as foliar spray
Chenopodium album [11] = assay: Post-emergence herbicidal activity against Chenopodium album assessed as growth inhibition at 25 g a.i/10 a applied 11 days after germination as foliar spray
Persicaria nodosa [12] = assay: Pre-emergence herbicidal activity against Persicaria nodosa assessed as growth inhibition at 25 g a.i/10 a

Row | SMILES | growth inhibition (GI) (Chenopodium album [1]) | growth inhibition (GI) (Persicaria nodosa [2]) | growth inhibition (GI) (Digitaria sanguinalis [3]) | growth inhibition (GI) (Echinochloa crus-galli [4]) | growth inhibition (GI) (Amaranthus retroflexus [5]) | growth inhibition (GI) (Digitaria sanguinalis [6]) | growth inhibition (GI) (Cyperus iria [7]) | growth inhibition (GI) (Cyperus iria [8]) | growth inhibition (GI) (Amaranthus retroflexus [9]) | growth inhibition (GI) (Echinochloa crus-galli [10]) | growth inhibition (GI) (Chenopodium album [11]) | growth inhibition (GI) (Persicaria nodosa [12])
1 | COc1cc(OC)nc(Oc2cc(N)ccc2C(=O)O)n1 | inactive | Active | inactive | inactive | inactive | inactive | inactive | Active | Active | inactive | Active | inactive
2 | COc1cc(OC)nc(Oc2ccc(F)cc2C(=O)O)n1 | Active | Active | Active | Active | Active | inactive | Active | Active | Active | Active | Active | Active
3 | COc1cc(OC)nc(Oc2cccc(-n3cccc3)c2C(=O)O)n1 | Active | Active | Active | Active | Active | Active | Active | Active | Active | Active | Active | Active
4 | COc1cc(OC)nc(Oc2c(F)cccc2C(=O)O)n1 | Active | Active | Active | Active | Active | inactive | Active | Active | Active | Active | Active | Active
5 | COc1cc(OC)nc(Oc2cccc(C(C)=O)c2C(=O)O)n1 | Active | Active | Active | Active | Active | Active | Active | Active | Active | Active | Active | Active
6 | COc1cc(OC)nc(Oc2ccc(Br)cc2C(=O)O)n1 | inactive | inactive | inactive | inactive | inactive | inactive | inactive | inactive | inactive | inactive | inactive | inactive
7 | COc1cc(OC)nc(Oc2c(Cl)cccc2C(=O)O)n1 | – | Active | – | – | – | inactive | – | Active | Active | inactive | inactive | –
8 | COc1cc(OC)nc(Oc2ccc(I)cc2C(=O)O)n1 | inactive | Active | inactive | inactive | inactive | inactive | inactive | Active | inactive | Active | inactive | inactive
9 | CCCOc1cccc(Oc2nc(OC)cc(OC)n2)c1C(=O)O | Active | Active | Active | Active | Active | Active | Active | Active | Active | Active | Active | Active
10 | COc1cc(OC)nc(Oc2ccc(Cl)cc2C(=O)O)n1 | Active | inactive | inactive | inactive | Active | inactive | inactive | Active | Active | inactive | Active | inactive
11 | CCOCCOc1cccc(Oc2nc(OC)cc(OC)n2)c1C(=O)O | Active | Active | Active | Active | Active | Active | Active | Active | Active | Active | Active | Active
12 | COc1cc(OC)nc(Nc2cccc(Cl)c2C(=O)O)n1 | inactive | inactive | inactive | inactive | inactive | inactive | inactive | inactive | Active | inactive | inactive | inactive
13 | COc1cc(OC)nc(Oc2ccc(OC(C)C)cc2C(=O)O)n1 | inactive | Active | inactive | inactive | inactive | inactive | inactive | Active | inactive | Active | inactive | inactive
14 | COc1cc(OC)nc(Oc2ccc(-n3cccc3)cc2C(=O)O)n1 | inactive | Active | inactive | inactive | inactive | Active | inactive | Active | Active | Active | inactive | inactive
